Reference: US11679111B2, “Fatty acid synthase inhibitors” (priority 2016, dated 2023)

Columns and labels:
[1] = system: FASN activity in HepG2 cells; test: [3H] glucose and acetate incorporation into lipids in HepG2 cells; type: cell-based; settings: FIG. 2D, cell line not stated
Method: To specifically identify inhibitors of FASN targeting its nucleotide binding pockets Cibacron blue Sepharose was utilized. This medium has been used previously to purify NAD and NADP binding proteins from crude tissues extracts (Miyaguchi et al., 2011; Muratsubaki et al., 1994). FASN enriched extract from lactating pig mammary gland was bound to the resin and labeled with cysteine reactive fluorescein. […] Next, the molecules were tested for their ability to inhibit FASN activity in a HepG2 cell based assay that measured the incorporation of ^3H glucose into lipids (FIG. 1B and FIG. 9).
Incorporation of radiolabeled glucose or acetate in total lipids was measured according to published methods (Haystead and Hardie, 1986). HepG2 cells (80% confluent in 12 wells plates) were starved overnight in MEM Alpha, the medium was then changed with DMEM medium containing 0.1 g/L glucose 10% FBS and 5 μM insulin and 1 μCi 3-[^3H] D-glucose or 1 μCi [^3H]-acetate in addition to different concentrations of each compound. After incubation for 1 hour at 37° C., 5% CO2, the cells were washed with ice cold PBS and detached by treating with 100 μl trypsin for 10 min then 1 ml of ice cold PBS was added. The cells suspension was then sonicated for 3 times in 30 seconds intervals and kept on ice. From each well 1 ml of cell lysate was added to a 4 ml scintillation vial and 2 ml of MicroScint-E was added. The vials were mixed thoroughly then centrifuged for 30 min at 3000 rpm and the ^3H radioactivity was measured by liquid scintillation counting.

[2] = system: MMTV-Neu model of HER2+ breast cancer; test: Efficacy in MMTV-Neu model of HER2+ breast cancer; type: in vivo, mice; settings: HS-106 30 pmol/kg BIW, Carboplatin 143 pmol/kg weekly, 21 days
BT474 cells = test: Caspase 3/7 activity assay; type: cell-based
Method: (§1) The assay was performed using a similar protocol to the one described by Fritz et al (Fritz et al., 2001). Cells were seeded at a density of 10,000 cells/well and treated with different concentrations of HS-106 or C75. After 24 hours, to each well, 50 μl of Caspase assay/lysis buffer (50 mM HEPES pH 7.5, 100 mM KCl, 5 mM EDTA, 10 mM MgC12, 10 mM CHAPS, 20% Sucrose, 10 mM DTT, 10 μM of (Z-DEVD)2-Rh110 (Santa Cruz Biotech) and complete protease inhibitor (Roche))was added. After 6 hours of incubation at 37° C., fluorescence was measured at Ex/Em: 485/535 nm.

SKBR3 cells = test: Caspase 3/7 activity assay; type: cell-based; settings: SKBR3, 24 hours
Method: as §1

HIV-1 = type: cell-based; settings: supernatants on fresh TZM-bl indicator cells
Method: (A) TZM-bl cells were transfected with pNL4-3 provirus plasmid for 48 h in the presence or absence of 10 μM Fasnall or C75 or DMSO (0.01%). Intracellular expression of HIV-1 proteins was monitored by HIVIG-western blot, and β-actin was used as loading control. (B) Supernatant associated virion production was monitored using a p24 ELISA. (C) 48 hours post-transfection, cell culture supernatants were removed and incubated with fresh TZM-bl (indicator) cells for an additional 48 hrs. Values expressed as the mean±standard deviation, and are representative of three independent experiments. p-values were generated with student's t-test. Molecular weight markers (kD) indicated in right margin.
To test further the hypothesis that HIV-1 replication requires FASN activity during the late stages of viral replication, TZM-bl or SupT1 (data not shown) cells were transfected with a HIV-1 provirus (pNL43) in the presence or absence of Fasnall or C75. […] Thus, FASN inhibition reduces nascent HIV-1 virion production without reducing HIV-1 protein synthesis.

## Cc1sc2ncnc(N[C@@H]3CCN(Cc4ccccc4)C3)c2c1C [HS-79, (R)—N-(1-benzylpyrrolidin-3-yl)-5,6-dimethylthieno[2,3-d]pyrimidin-4-amine]
[1]
  inhibition of tritiated acetate incorporation into lipids: inhibit the incorporation of tritiated acetate into lipids

## N.N.O=C([O-])C1(C(=O)[O-])CCC1.[Pt+2] [Carboplatin, reference compound]
[2]
  tumors with objective response of stable disease or better: 25%

## CCCCCCCCCCCCCCOc1ccc(C(=O)O)o1 [TOFA]
BT474 cells; BT474, 15 μM TOFA pretreatment
  reversal of HS-106 induced caspase 3/7 activity by pretreatment: completely reverse the effect of HS-106

## Cc1sc2ncnc(N[C@H]3CCN(Cc4ccccc4)C3)c2c1C [HS-80, (S)—N-(1-benzylpyrrolidin-3-yl)-5,6-dimethylthieno[2,3-d]pyrimidin-4-amine]
[1]
  inhibition of tritiated acetate incorporation into lipids: inhibit the incorporation of tritiated acetate into lipids

## C=C1C(=O)OC(CCCCCCCC)C1C(=O)O (centres unmarked) [C75, reference compound]
BT474 cells; BT474, 24 hours
  caspase activity relative to MCF10A cells: 10 fold
SKBR3 cells
  caspase activity relative to MCF10A cells: 2 fold
HIV-1
  number of infectious HIV-1 particles: similarly reduced the number of infectious HIV-1 particles

## CCCCCCC(=O)CCCCCC/C=C/C[C@@H](O)[C@H](O)[C@@](N)(CO)C(=O)O [Myriocin]
BT474 cells; BT474, 10 μM pretreatment, 24 hours
  rescue from Fasnall induced apoptosis by ceramide synthesis inhibitor: modestly rescue the cells
